{
  "source": "paper PMC12954580",
  "about": "“Multivalent glycoligands with lectin/enzyme dual specificity: self-deliverable glycosidase regulators” (Chemical Communications (Cambridge, England), 2019)",
  "key": {"[1]": {"target": "T1, recombinant human MMR (macrophage mannose receptor) (Homo sapiens, UniProt P22897)", "T1 sequence (P22897 19-1456)": "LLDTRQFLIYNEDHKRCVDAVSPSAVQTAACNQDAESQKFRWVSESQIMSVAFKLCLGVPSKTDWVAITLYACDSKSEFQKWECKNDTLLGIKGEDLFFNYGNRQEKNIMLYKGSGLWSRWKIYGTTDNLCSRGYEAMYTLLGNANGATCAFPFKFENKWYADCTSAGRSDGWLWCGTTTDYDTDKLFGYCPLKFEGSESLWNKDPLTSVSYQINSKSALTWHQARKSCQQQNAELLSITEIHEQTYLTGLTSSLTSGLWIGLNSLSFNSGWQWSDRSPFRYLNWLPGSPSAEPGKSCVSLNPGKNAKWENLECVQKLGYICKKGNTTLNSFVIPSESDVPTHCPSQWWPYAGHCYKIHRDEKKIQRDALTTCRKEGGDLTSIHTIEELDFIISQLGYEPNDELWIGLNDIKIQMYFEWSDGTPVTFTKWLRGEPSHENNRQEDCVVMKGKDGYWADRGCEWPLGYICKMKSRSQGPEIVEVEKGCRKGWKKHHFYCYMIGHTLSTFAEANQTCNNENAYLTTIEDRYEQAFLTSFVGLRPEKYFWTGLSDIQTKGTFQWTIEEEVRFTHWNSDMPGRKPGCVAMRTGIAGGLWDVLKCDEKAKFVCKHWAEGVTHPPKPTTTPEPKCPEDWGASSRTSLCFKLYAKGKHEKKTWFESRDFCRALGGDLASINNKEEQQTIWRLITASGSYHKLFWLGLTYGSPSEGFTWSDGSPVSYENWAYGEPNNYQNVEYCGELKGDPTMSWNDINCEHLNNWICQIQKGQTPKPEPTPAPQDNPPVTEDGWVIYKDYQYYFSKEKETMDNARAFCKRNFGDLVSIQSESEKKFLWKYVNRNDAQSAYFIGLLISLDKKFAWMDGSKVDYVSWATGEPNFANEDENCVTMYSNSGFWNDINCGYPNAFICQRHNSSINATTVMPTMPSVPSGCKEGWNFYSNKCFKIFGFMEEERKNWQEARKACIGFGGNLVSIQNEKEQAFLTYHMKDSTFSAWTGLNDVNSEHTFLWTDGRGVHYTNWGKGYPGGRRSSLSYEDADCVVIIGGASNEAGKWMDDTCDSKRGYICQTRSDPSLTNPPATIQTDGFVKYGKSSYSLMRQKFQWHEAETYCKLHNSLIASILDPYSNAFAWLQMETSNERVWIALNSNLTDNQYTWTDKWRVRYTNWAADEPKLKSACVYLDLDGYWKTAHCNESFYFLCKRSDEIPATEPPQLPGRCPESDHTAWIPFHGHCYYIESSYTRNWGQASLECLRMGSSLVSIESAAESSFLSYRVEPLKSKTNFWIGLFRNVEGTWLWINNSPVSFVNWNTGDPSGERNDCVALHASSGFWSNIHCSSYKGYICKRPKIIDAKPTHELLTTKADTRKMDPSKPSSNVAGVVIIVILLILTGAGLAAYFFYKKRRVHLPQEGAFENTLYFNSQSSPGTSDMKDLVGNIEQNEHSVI", "assay": "Modified ELLA: inhibition of rhMMR binding to yeast mannan", "details": "mean of three independent experiments ± SD", "experimental": "conjugates 3-8 the above protocol was repeated using in the last incubation step a solution of the desired HRP-ConA lectin concentration (50 µL per well) that contained inhibitors targeting the glycone, glycone/aglycone and surface sites (9-13; 500 µM; Figure S21B). Control […]\nin the absence of the enzyme.\nDetermination of recombinant human MMR (rhMMR) binding affinities . The wells of mannan-coated microplates, prepared as above described, were filled with 100 μL of serial dilutions of rhMMR from a 10 µg·mL-1 stock solution in PBS (pH 7.3 containing 0.1 mM Ca2+ and 0.1 mM Mn2+), and incubated at 37 °C for 1 h. The plates were washed three times with PBST as described above and 100 µL of a solution of biotinylated anti -human MMR antibody (0.2 µg·mL_1, R&D Systems) in PBS was added in each well, and the plates were further incubated for 1 h at 37 °C.\nThe complex NeutrAvidin-biotinylated HRP was preformed separately by successively adding to Tris buffer (9.6 mL, 50 mM, pH 7.6) a solution of NeutrAvidin (100 µg·mL-1 in Tris buffer, 1.2 mL, Thermo Scientific) and a solution of biotin-conjugated HRP (25 µg·mL-1 in Tris buffer, 1.2 mL, Thermo Scientific). […] After 5 min at RT, the optical density was measured at 415 nm. […]\ninhibition experiments. […] Optical density at 415 nm was determined after 5 min. The percent of inhibition was calculated as above indicated for a typical ELLA experiment."}, "[2]": {"target": "T2, α-mannosidase (jack beans) (Canavalia ensiformis, UniProt C0HJB3)", "T2 construct": "purchased; host or cells: jack beans", "T2 sequence (C0HJB3 1-981)": "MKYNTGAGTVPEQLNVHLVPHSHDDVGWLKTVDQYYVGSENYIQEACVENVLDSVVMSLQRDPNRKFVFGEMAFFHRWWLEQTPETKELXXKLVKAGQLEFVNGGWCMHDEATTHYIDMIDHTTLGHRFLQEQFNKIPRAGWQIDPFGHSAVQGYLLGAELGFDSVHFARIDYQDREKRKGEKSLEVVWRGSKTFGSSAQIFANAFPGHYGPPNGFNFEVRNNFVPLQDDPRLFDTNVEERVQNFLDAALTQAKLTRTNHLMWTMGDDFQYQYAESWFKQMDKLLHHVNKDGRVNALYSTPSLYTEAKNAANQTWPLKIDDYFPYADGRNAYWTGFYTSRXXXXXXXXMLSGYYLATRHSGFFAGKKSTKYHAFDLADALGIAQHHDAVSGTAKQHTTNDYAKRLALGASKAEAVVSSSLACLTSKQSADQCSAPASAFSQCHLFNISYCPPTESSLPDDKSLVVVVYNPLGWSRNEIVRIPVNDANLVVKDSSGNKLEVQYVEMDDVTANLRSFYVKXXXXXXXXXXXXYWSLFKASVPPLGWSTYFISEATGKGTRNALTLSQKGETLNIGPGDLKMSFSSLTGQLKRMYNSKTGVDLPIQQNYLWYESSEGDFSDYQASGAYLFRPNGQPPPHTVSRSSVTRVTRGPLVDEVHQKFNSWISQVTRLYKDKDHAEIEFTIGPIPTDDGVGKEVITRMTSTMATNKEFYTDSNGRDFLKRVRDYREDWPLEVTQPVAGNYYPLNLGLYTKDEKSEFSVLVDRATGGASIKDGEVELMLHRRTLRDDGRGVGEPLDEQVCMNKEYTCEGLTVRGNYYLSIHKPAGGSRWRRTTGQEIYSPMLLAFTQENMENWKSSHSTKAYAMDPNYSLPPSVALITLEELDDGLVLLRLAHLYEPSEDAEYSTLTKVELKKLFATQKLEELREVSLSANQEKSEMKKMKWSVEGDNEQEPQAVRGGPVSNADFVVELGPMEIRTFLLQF", "assay": "Enzymatic stability / substrate behaviour towards glycosidases (gas chromatography)", "format": "biochemical", "details": "control experiment", "source_text": "Preliminary evidence on the feasibility of achieving disparate glycosidase inhibition selectivity with the multivalent glycoclusters 3–8 and, at the same time, retaining intrinsic lectin binding properties was achieved by conducting control experiments using both commercial glycosidases and lectins. The glycosidase panel included α- and β-glucosidases (S. cerevisiae and bovine liver), α- and β-galactosidases (green coffee beans and E. coli) and α- and β-mannosidases (jack beans and H. pomatia). Prior to kinetic determination of the corresponding inhibition constant (Ki) values (Table S1 and Fig. S9–S18, ESI ^†), the enzymatic stability was investigated by gas chromatography. […] In all the other cases the α-mannopyranoside linkages remained stable, meaning that any effect observed in the enzyme activity should be ascribed to an inhibitor and not to a substrate behavior."}, "concanavalin A (ConA)": {"target": "T3, concanavalin A (ConA) (Canavalia ensiformis, UniProt P02866)", "T3 construct": "purchased", "assay": "Enzyme-linked lectin assay (ELLA), HRP-ConA/mannan binding inhibition", "design": "species or system Concanavalia einsiformis", "details": "Figure S19A, values printed over bars, axis log [IC50, M]", "experimental": "The absorbance of the resulting mixture was determined at 405 nm."}},
  "data": [
    {"compound": "Man9", "values": [
      {"measurement": "IC50", "setting": "[1]", "value": "3.9 ± 0.5", "unit": "µM"},
      {"measurement": "Substrate behaviour towards GH38 jack bean Manase", "setting": "[2]", "value": "substrates"}
    ]},
    {"compound": "CO[C@H]1O[C@H](CO)[C@@H](O)[C@H](O)[C@@H]1O", "note": "[MeMan, methyl α-D-mannopyranoside]", "values": [
      {"measurement": "IC50", "setting": "concanavalin A (ConA)", "value": 800, "unit": "µM"}
    ]}
  ]
}
